Assay results taken from ChEMBL document CHEMBL5050844 (2019).

Experiments:
[1] = Induction of anti-CD3/CD28 antibodies-stimulated human T cell activation at 1 uM assessed fold increase in CD25 expression measured by ELISA assay; type: functional, T cell line
[2] = Induction of anti-CD3 antibodies-stimulated human CD4+ T cell activation at 1.11 uM assessed fold increase in CD69 expression measured by flow cytometry analysis; type: functional, T cell line; note: reference of the scale not given here
[3] = Induction of anti-CD3/CD28 antibodies-stimulated human anergic T cell activation at 1.11 uM assessed fold increase in IFN-gamma secretion measured by ELISA assay; type: functional, T cell line
[4] = Induction of anti-CD3 antibodies-stimulated human T cell activation at 1 uM assessed fold increase in CD25 expression measured by ELISA assay; type: functional, T cell line; note: reference of the scale not given here
[5] = Induction of anti-CD3/CD28 antibodies-stimulated human CD8+ T cell activation at 10 uM assessed fold increase in cell proliferation measured by flow cytometry analysis; type: functional, T cell line
[6] = Induction of allogenic human T cell activation at 10 uM assessed fold increase in cell proliferation; type: functional, T cell line
[7] = Induction of anti-CD3/CD28 antibodies-stimulated human T cell activation at 10 uM assessed fold increase in IFN-gamma secretion measured by ELISA assay; type: functional, T cell line
[8] = Induction of anti-CD3/CD28 antibodies-stimulated human T cell activation at 0.3 uM assessed fold increase in CD25 expression measured by ELISA assay; type: functional, T cell line
[9] = Induction of anti-CD3 antibodies-stimulated human T cell activation at 8 uM assessed fold increase in IL-2 secretion measured by ELISA assay; type: functional, T cell line; note: reference of the scale not given here
[10] = Induction of anti-CD3 antibodies-stimulated human T cell activation at 8 uM assessed fold increase in CD25 expression measured by ELISA assay; type: functional, T cell line; note: reference of the scale not given here
[11] = Induction of anti-CD3 antibodies-stimulated human exhausted CD8+ T cell activation assessed fold increase in CTLA4 expression measured by flow cytometry analysis; type: functional, T cell line; note: reference of the scale not given here
[12] = Induction of anti-CD3/CD28 antibodies-stimulated human T cell activation at 10 uM assessed fold increase in TNF-alpha secretion measured by ELISA assay; type: functional, T cell line
[13] = Induction of anti-CD3/CD28 antibodies-stimulated human T cell activation at 0.3 uM assessed fold increase in IL-2 secretion measured by ELISA assay; type: functional, T cell line
[14] = Induction of anti-CD3 antibodies-stimulated human T cell activation at 10 uM assessed fold increase in IFN-gamma secretion measured by ELISA assay; type: functional, T cell line; note: reference of the scale not given here
[15] = Induction of anti-CD3/CD28 antibodies-stimulated human CD4+ T cell activation at 1.11 uM assessed fold increase in cell proliferation measured by flow cytometry analysis; type: functional, T cell line
[16] = target: T1, E3 ubiquitin-protein ligase CBL-B (Homo sapiens, UniProt Q13191); test: Inhibition of N-terminal Avi-tagged human CBL-B (36 to 427 residues) incubated with 60 nM Src kinase for 1.5 hrs followed by incubation with fluorescently labeled UbcH5B-Ub for 1 hr and measured by TR-FRET assay; type: single protein
T1 sequence (Q13191 whole entry, the tested form may be a part): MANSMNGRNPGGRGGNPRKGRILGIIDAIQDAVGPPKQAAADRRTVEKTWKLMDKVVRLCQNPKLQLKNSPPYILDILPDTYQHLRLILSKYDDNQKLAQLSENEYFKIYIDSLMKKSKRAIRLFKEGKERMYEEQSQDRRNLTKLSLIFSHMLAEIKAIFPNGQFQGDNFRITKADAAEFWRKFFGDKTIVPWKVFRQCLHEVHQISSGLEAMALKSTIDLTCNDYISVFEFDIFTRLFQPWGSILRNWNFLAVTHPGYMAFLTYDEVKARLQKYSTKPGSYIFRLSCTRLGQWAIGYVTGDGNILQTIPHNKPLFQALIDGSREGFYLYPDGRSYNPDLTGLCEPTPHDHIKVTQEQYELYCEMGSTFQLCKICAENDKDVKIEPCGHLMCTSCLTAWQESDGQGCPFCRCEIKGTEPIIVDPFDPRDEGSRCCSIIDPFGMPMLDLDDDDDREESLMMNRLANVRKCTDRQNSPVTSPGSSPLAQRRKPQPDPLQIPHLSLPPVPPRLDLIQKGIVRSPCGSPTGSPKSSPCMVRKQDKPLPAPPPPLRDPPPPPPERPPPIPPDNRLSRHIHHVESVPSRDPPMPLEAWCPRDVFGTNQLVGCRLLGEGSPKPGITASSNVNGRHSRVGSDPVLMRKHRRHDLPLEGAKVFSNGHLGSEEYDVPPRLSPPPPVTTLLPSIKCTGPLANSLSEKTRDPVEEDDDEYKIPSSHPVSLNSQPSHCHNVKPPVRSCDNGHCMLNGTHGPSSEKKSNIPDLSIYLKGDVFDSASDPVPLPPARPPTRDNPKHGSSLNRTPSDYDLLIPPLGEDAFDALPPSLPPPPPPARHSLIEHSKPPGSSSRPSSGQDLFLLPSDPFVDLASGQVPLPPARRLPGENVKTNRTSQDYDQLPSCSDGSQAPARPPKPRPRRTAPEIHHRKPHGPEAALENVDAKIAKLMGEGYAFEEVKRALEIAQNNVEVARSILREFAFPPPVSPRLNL

[17] = target: T1, E3 ubiquitin-protein ligase CBL-B; test: Binding affinity towards N-terminal biotinylated Avi-tagged human CBL-B (36 to 427 residues) measured by surface plasmon resonance assay

SMILES | fold change (FC) [1] | fold change (FC) [2] | fold change (FC) [3] | fold change (FC) [4] | fold change (FC) [5] | fold change (FC) [6] | fold change (FC) [7] | fold change (FC) [8] | fold change (FC) [9] | fold change (FC) [10] | fold change (FC) [11] | fold change (FC) [12] | fold change (FC) [13] | fold change (FC) [14] | fold change (FC) [15] | IC50 [16] [µM] | Kd [17] [µM]
C[C@H](Sc1nncn1C)c1cccc(NC(=O)c2cc(C(=O)N3CC[C@H](O)C3)ccn2)c1 | 1.01 | >1.601 | <=2.5 | 0.601 | >4 | <=2 | >4 | 1.01 | <=0.05 | 0.801 | <=1.4 | 2.01 | <=1 | >4 | >4 | – | –
C[C@H](Cc1nncn1C)c1cccc(NC(=O)c2cc3cc(N4CCNCC4)ccc3cn2)c1.Cl | 1.01 | 1.401 | <=2.5 | 0.801 | 2.01 | <=2 | <=2 | 1.01 | 0.101 | 0.801 | 1.41 | 1.51 | <=1 | <=2 | 3.01 | < 0.1 | < 0.1
C[C@H](Cc1nncn1C)c1cccc(NC(=O)c2nc(C(F)(F)F)c[nH]2)c1 | 1.01 | 1.201 | <=2.5 | 0.801 | 3.01 | <=2 | 2.01 | 1.01 | >=0.201 | >=1.001 | <=1.4 | 2.01 | 1.01 | 2.01 | 2.01 | – | –
C[C@H](Cc1nncn1C)c1cccc(N2Cc3c(cc(CN4CC(C)(O)C4)cc3C(F)(F)F)C2=O)c1 | 1.31 | >1.601 | >4.01 | >=1.001 | >4 | 2.01 | >4 | 1.01 | >=0.201 | >=1.001 | >1.61 | 2.01 | 2.51 | <=2 | >4 | < 0.1 | < 0.1
C[C@H](Cc1nncn1C)c1cccc(N2Cc3c(ccnc3C3CC3)C2=O)c1 | 1.01 | <=1.2 | <=2.5 | 0.601 | 3.01 | <=2 | 2.01 | 1.01 | >=0.201 | >=1.001 | <=1.4 | 2.01 | 1.01 | 2.01 | 2.01 | – | –
Cc1n[nH]c(C)c1-c1cc2c(c(C(F)(F)F)c1)CN(c1cccc(C3(Cc4nncn4C)COC3)c1)C2=O | 1.01 | 1.401 | <=2.5 | >=1.001 | 3.01 | <=2 | >4 | 1.01 | >=0.201 | >=1.001 | >1.61 | 2.01 | 1.01 | <=2 | >4 | < 0.1 | < 0.1
C[C@H](Cc1nncn1C)c1cccc(NC(=O)c2cccc(CCO)n2)c1 | 1.01 | <=1.2 | <=2.5 | <=0.6 | 2.01 | <=2 | >4 | 1.01 | 0.151 | 0.801 | <=1.4 | 1.51 | 1.01 | <=2 | <=2 | – | –
Cn1cnnc1CC1(c2cccc(N3Cc4c(cc(CN5CC[C@H](C#N)C5)cc4C(F)(F)F)C3=O)c2)COC1 | 1.31 | 1.401 | 2.51 | >=1.001 | 3.01 | 2.01 | >4 | 1.31 | >=0.201 | >=1.001 | >1.61 | 2.01 | 5 | 3.01 | >4 | < 0.1 | –
C[C@H](Cc1nncn1C)c1cccc(NC(=O)c2n[nH]c3c2CCC3)c1 | 1.01 | >1.601 | <=2.5 | 0.601 | 2.01 | <=2 | 2.01 | 1.01 | 0.151 | 0.801 | <=1.4 | 2.01 | 1.01 | <=2 | >4 | – | –
Cn1cnnc1C(F)(F)[C@](C)(F)c1cccc(N2Cc3c(cc(CN4CC[C@@H](C#N)C4)cc3C(F)(F)F)C2=O)c1 | 1.31 | 1.401 | 2.51 | 0.801 | >4 | <=2 | >4 | 1.01 | >=0.201 | >=1.001 | >1.61 | 2.01 | 5 | 3.01 | >4 | < 0.1 | –
Cn1cnnc1C(F)(F)C(C)(F)c1cccc(N2Cc3c(cc(CN4CC[C@@H](F)C4)cc3C(F)(F)F)C2=O)c1 (single isomer, unassigned) | 1.51 | 1.401 | 2.51 | >=1.001 | >4 | 2.01 | >4 | 1.31 | >=0.201 | >=1.001 | >1.61 | 2.01 | 2.51 | <=2 | >4 | < 0.1 | < 0.1
Cn1cnnc1[C@@H]1C[C@@H]1c1cccc(N2Cc3c(ccnc3C(F)(F)F)C2=O)c1 | 1.01 | <=1.2 | <=2.5 | 0.601 | 2.01 | <=2 | <=2 | 1.01 | 0.101 | 0.801 | <=1.4 | 2.01 | 1.01 | <=2 | <=2 | – | –
Cc1cc(C(=O)Nc2cccc([C@@H](C)Cc3nncn3C)c2)nc(C2CC2)n1 | 1.01 | 1.401 | <=2.5 | 0.801 | >4 | <=2 | >4 | 1.01 | 0.101 | >=1.001 | <=1.4 | 2.01 | 1.01 | <=2 | >4 | – | –
Cc1cc2c(c(C3CC3)n1)CN(c1cccc([C@H](C)Cc3nncn3C)c1)C2=O | 1.01 | <=1.2 | <=2.5 | 0.601 | 2.01 | <=2 | <=2 | 1.01 | 0.101 | 0.801 | <=1.4 | 2.01 | 1.01 | <=2 | <=2 | – | –
